Measurements: US20020165216A1, “Cobalt-porphyrin complexes and use thereof as an anti-obesity agent” (MitoKor, priority 2000, published 2002)
Entries after “also recorded” stand apart in the source; their conditions may differ. Like-named read-outs stand apart in the source and are kept apart here.

Tests used:
[1] = Oxygen consumption catalyzed by Co-P in the presence of ascorbate/TMPD (Clark oxygen electrode); conditions: 2 mM ascorbate, 40 μM TMPD; for Relative Rate (oxygen consumption), effect of ligand, R5 and A moiety: Table 3; for O2 consumption / redox cycling (in words): cell free ascorbate/TMPD system
Description: (Co-MP). Such activity can be readily determined by, for example, the assay disclosed in Example 16. In that assay, redox activity is measured by oxygen consumption catalyzed by a Co-P test compound in the presence of ascorbate and TMPD.
Ten mM stock solutions of a Co-P of this invention (i.e., test compound) were prepared using ethanol as solvent. KCl media consists of 125 mM KCl, 2 mM K2HPO4, 20 mM HEPES, pH 7.0. Oxygen consumption measurements were carried out using a Clark type oxygen electrode (Rank Brothers Ltd., Cambridge, UK) and assay solutions were magnetically stirred during the course of the experiments. To 500 μl of assay solution (KCl media supplemented with 2 mM sodium ascorbate and 40 μM […] (TMPD)) is added 2 μl of a stock solution of test compound (40 μM final concentration) and the oxygen consumption rate is followed for 2-4 min. Subsequently, a 5 μl aliquot of a freshly made catalase solution (100 mg/ml solution in KCl media) is added to determine if H2O2 is generated via redox cycling of the test compound.
Initial rates are calculated from oxygen consumption slopes and rate of a solvent control is subtracted. […] An aliquot of a 10 mM stock solution of Co-MP (final concentration of 40 μM) was added to assay buffer containing 2 mM of ascorbate and 40 μM of TMPD. […] Addition of catalase results in conversion of H2O2 present in the assay solution to O2 and H2O.
Stock solutions of the test compound were at 10 mM. Aliquots of the stock solutions were added to 500 μl of assay buffer containing 2 mM of ascorbate and 40 μM of TMPD.
Representative Co-P compounds of this invention were prepared by the procedures disclosed above, and assayed by the procedure of Example 16 to measure oxygen consumption catalyzed by the test compound in the presence of ascorbate/TMPD. […] The above procedure was then repeated for other representative Co-P compounds of this invention, but utilizing different ligands and/or R groups.

Weight loss assay = format: in vivo, Male Sprague Dawley rats; conditions: 12 mM in vehicle, 400 μl per 100 grams body weight, subcutaneous, nuchal area, 8 days
Description: (§1) Male Sprague Dawley rats (approximately 200 g) were purchased from Charles River Canada, Inc. and were shipped to the Animal Care Facility at the University of Vermont. Upon arrival they were housed in separate cages with corncob bedding and ad lib access to tap water and purina rat chow. The animal facility is maintained at a temperature of 71° F. +/− 1° F. with a 12-hour light/dark cycle, lights on at 6:00 am and off at 6:00 pm. Two days later (Day-3) all rats were shaved in the nuchal area and baseline color photographs of the nuchal area were taken (light halothane anesthesia was utilized to facilitate the shaving). Three days later (Day 0) experimental compounds were made up at 12 mM concentrations in vehicle (i.e., saline:PEG400:EtOH (5:4:1), pH 7.4). Animals were injected subcutaneously in the nuchal area with the various stock solutions at a dose of 400 μl per 100 grams body weight. Typical injection volumes, therefore, range from 1 to 1.5 ml per animal. Animals were injected using a modified Z-track technique to try and minimize outflow of injected compounds due to the high volume utilized. Each animal was weighed prior to injection and all injections were accomplished in an approximately two-hour period. No anesthesia was utilized for injections.
Animals subsequently underwent daily weighing with a Mettler 6 second integrating balance and had ad lib access to tap water and purina rat chow. At various intervals after injections, the nuchal area of rats was again photographed. […] The scale used was 0 for no lesions, 5 for the worst lesions with breakdown of the skin and open flow of exudates. Grades in-between were estimated by the operator based on the size and severity of the lesion. […] After 8 days, final photographs were taken and all animals were euthanized, marking the end of the experiment.
Means of body weights for each group were calculated and plotted over time (FIG. 9A), as were numerical means of the lesion severity index (FIG. 9B). In FIGS. 9A and 9B, C=noninjected control, V=vehicle injected control, A=Co-MP, E=Cpd. No. (1-6) and F=Cpd. No. (4-4). […] Cpd.

[2] = system: SH-SY5Y neuroblastoma cells; experiment: Cellular assay for generation of reactive oxygen species (ROS); format: cell-based; conditions: for generation of reactive oxygen species (DCFC-DA fluorescence): 30 minutes with test compound
Description: All cell culture reagents were incubated in a water bath at 37° C. for approximately 30 minutes. Existing media from a near confluent tissue culture flask containing SH-SY5Y neuroblastoma cells was aspirated using a flame sterilized glass transfer pipette attached to a trapped vacuum apparatus. Calcium free PBS buffer was pipetted into the tissue culture flask (2 ml for a 75 cm2 flask, 3 ml for a 175 cm^2 flask). The flask was tipped slightly to ensure that the buffer covers the cell culture and then the buffer was removed by aspiration. Trypsin media was pipetted into the tissue culture flask (2 ml for a 75 cm^2 flask, 3 ml for a 175 cm^2 flask) and evenly spread to ensure that the trypsin covered the cell culture. The cell culture was incubated with trypsin media for 4-6 minutes at room temperature. After cells were released from the flask, the flask was tilted to one corner. Using the existing media within the flask, the aggregated cells were collected towards one corner and repeatedly pipetted to obtain a single cell suspension. The cell suspension was transferred with a pipette into a 15 ml conical shaped centrifuge tube then cell culture media was added to the suspension up to a total volume of 14 ml. Ten μl aliquots were withdrawn and the cells were counted using a hemocytometer. The suspension was centrifuged at 200×g for 10 minutes, the supernatant was aspirated off, and the cell pellet was resuspended at 3.75×10^5 cells/ml in cell culture medium. Two hundred μl of cell suspension were aliquoted per well in the 96 well dish to obtain a final cell number of 75,000 cells per well. The plates were incubated overnight at 37° C. and 5% CO2 in a humidified cell incubator.
The medium was carefully removed from the wells by aspiration with an 18 g needle. The wells were gently rinsed once with 200 μl of warm Hanks balanced saline solution (HBSS, Gibco-BRL). […]
Stock solutions of test compound, such as Co-PP, Co-MP, or a Co-P of this invention, and of an H2O2 scavenger such as ebselen, were typically prepared in dimethylformamide or dimethylsulfoxide and diluted further into working concentrations using HBSS. […] The plate was read immediately in Cytofluor model 2350 system (Millipore; excitation wavelength: 485 nm; emission wavelength: 530 nm) for a 0 min timepoint reading. The cells were incubated for 30 minutes at room temperature with test compound following which a 30 min reading was taken. The change in RMF over the 30 minutes period was calculated for each well. […] The plate was then read in the Cytofluor (excitation wavelength: 360 nm; emission wavelength: 460 nm) and the Hoechst fluorescence values were used to normalize the DCFC-DA RMF data.

[3] = cited from earlier work
[4] = high doses; cited from earlier work
reduced cytochrome c = reduced cytochrome c (Homo sapiens, UniProt P99999); experiment: Oxidation of reduced cytochrome c by Co-PP; format: biochemical; conditions: reduced cytochrome c 5.3, 10.5, 26 μM; 0-100 μM CoPP; absorbance at 550 nm
Description: Reduced cytochrome c was prepared by the addition of an excess of ascorbic acid to a solution of cytochrome c and allowing the solution to stand for 5 to 10 minutes. The reduced protein was purified over a Sephadex G50 column and checked spectrophotometrically by measuring absorbance at 550 nm, followed by the addition of a few grains of dithionite and measuring absorbance again at 550 nm. […] Initial rates of oxidation of reduced cytochrome c at three concentrations (5.3 μM, 10.5 μM and 26 μM) were followed in the presence of 0, 5,10, 20 and 100 μM CoPP. Assays were conducted in 1 ml of assay buffer (20 mM potassium phosphate, pH 7.0, 0.2 mg/ml dodecyl-β-maltoside) and initiated by the addition of desired concentration of reduced cytochrome c and monitoring the change in absorbance at 550 nm for 90 seconds. The fully oxidized absorbance value was determined by the addition of a few grains of ferricyanide to the cuvette. […] In a biological system, Co-PP can transfer electrons from an electron rich donor/reductant to molecular oxygen, O2, to generate reactive oxygen species, the production of which can be toxic to cells and give rise to undesirable side effects (e.g. oxidative stress).

[5] = cited from earlier work; remark: listed apart in the source
[6] = Lesion severity assay (nuchal injection site); format: in vivo, Male Sprague Dawley rats; conditions: scale 0 no lesions to 5 worst lesions; 12 mM, 400 μl per 100 grams body weight, subcutaneous, nuchal area, 8 days
Description: as §1, with “No anesthesia was utilized for injections.” left out
Means of body weights for each group were calculated and plotted over time (FIG. 9A), as were numerical means of the lesion severity index (FIG. 9B). […]

[7] = 40 μM test compound, normalized to chloride salt of Co-MP = 1

Sequence of reduced cytochrome c (P99999 whole entry): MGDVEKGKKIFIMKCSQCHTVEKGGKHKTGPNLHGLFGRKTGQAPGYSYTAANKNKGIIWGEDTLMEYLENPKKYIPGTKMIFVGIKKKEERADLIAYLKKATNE

## Cobalt (III) Mesoporphyrin IX bisglycinate monosodium salt diisopropyl ester [(1-6)]
[1]; [7]
  Relative Rate (oxygen consumption), effect of ligand, R5 and A moiety: (not detected)
Weight loss assay
  body weight response: favorable body weight responses

## O=c1c2ccccc2[se]n1-c1ccccc1 [ebelsen, ebselen]
[2]
  scavenging of reactive oxygen species induced by Co-PP and Co-MP: scavanges the reactive oxygen species

## C=CC1=C(C)c2cc3[n-]c(cc4nc(cc5[n-]c(cc1n2)c(C)c5CCC(=O)[O-])C(CCC(=O)[O-])=C4C)c(C)c3C=C.[Co+2].[H+].[H+] [Co-PP, Cobalt protoporphyrin]
[3]; subcutaneous administration, Zucker rats fa/fa
  body weight: long-sustained reduction in body weight
[1]; [7]
  Relative Rate (oxygen consumption), effect of ligand, R5 and A moiety: 2.2
[2]
  generation of reactive oxygen species (DCFC-DA fluorescence): reactive oxygen species were induced
[4]
  heme oxygenase induction: induction of heme oxygenase
  oxidative stress: oxidative stress has been associated with administration of high doses
Reduced cytochrome c
  oxidation of reduced cytochrome c: serves as an electron acceptor from reduced cytochrome c
[5]; single subcutaneous injection
  body weight: sustained decrease in body weight
  carcass composition: decreases in carcass fat content without changes in protein content
  food intake: prompt dose-dependent decrease in food intake
[5]; smaller doses, intracerebroventricular administration
  food intake and body weight effect: elicit the same effect

## CCC1=C(C)c2cc3[n-]c(cc4nc(cc5[n-]c(cc1n2)c(C)c5CCC(=O)NC(C)C)C(CCC(=O)NC(C)C)=C4C)c(C)c3CC.NCC(=O)O.NCC(=O)[O-].[Co+3] [(4-4), Cobalt (III) mesoporphvrin IX bisglycinate, di—(N-isopropyl)amide]
Weight loss assay
  body weight response: favorable body weight responses

## Cobalt (III) mesoporphyrin IX bisimidazole, di(4-methoxybenzyl) amide [(4-2)]
[1]; [7]
  Relative Rate (oxygen consumption), effect of ligand, R5 and A moiety: (not detected)
[1]
  O2 consumption / redox cycling (in words): does not result in any O2 consumption
[2]
  generation of reactive oxygen species (DCFC-DA fluorescence): does not trigger generation of reactive oxygen species

## cobalt mesoporphyrin [Co-MP]
[3]; rat, in vivo
  body weight regulating effect compared with Co-PP: comparable biological profile
[1]; Table 1, Co-MP with L1 = L2 varied, 40 μM test compound, normalized to chloride salt of Co-MP = 1
  Relative Rate (oxygen consumption), effect of ligand: 1 (assigned value)
[1]; Table 2, 40 μM test compound, normalized to chloride salt of Co-MP = 1
  Relative Rate (oxygen consumption), effect of ligand and R5 moiety: 1 (assigned value)
[1]; [7]
  Relative Rate (oxygen consumption), effect of ligand, R5 and A moiety: 1 (assigned value)
[1]; Table 4, 40 μM test compound, normalized to chloride salt of Co-MP = 1
  Relative Rate (oxygen consumption), effect of ligand, R5, A and n moiety: 1.0 (assigned
[1]
  O2 consumption / redox cycling (in words): immediate depletion of dissolved O2; also recorded: triggers robust consumption of O2
[2]
  generation of reactive oxygen species (DCFC-DA fluorescence): reactive oxygen species were induced
Weight loss assay
  body weight response: greatest body weight response
[6]
  lesion severity: greatest lesion severity
